Reference: patent US20080287398A1, “COLD MENTHOL RECEPTOR-1 ANTAGONISTS” (priority 2007, published 2008)
Where “and” joins values, the source holds several entries; their conditions need not be identical. Equal entries are not always repeated. Where two headings read alike, the source gives them in different places.

Biological target: T1, canine TRPM8 (Canis lupus familiaris, UniProt Q1A7N1)
T1 construct: expressed in transfected cells
Experiment: In vitro canine TRPM8 functional assay (Ca2+-sensitive dye, FLIPR/FDSS, icilin activation)
Format: cell-based
Details: HEK293 cells expressing canine TRPM8, icilin activation; for % I (5 μM): 5 μM compound; for IC50: eight-point dose-response; for % I (0.5 μM): 0.5 μM compound; for % I (1 μM): 1 μM compound
Protocol: The functional activity of compounds of Formula (I) was determined by measuring changes in intracellular calcium concentration using a Ca^2+-sensitive fluorescent dye. The changes in fluorescent signal were monitored by a fluorescence plate reader, either a FLIPR™ (Molecular Devices) or FDSS (Hamamatsu).
HEK293 cells stably expressing canine TRPM8 were routinely grown as monolayers in Dulbecco's minimum essential medium supplemented with 10% FBS, 1 mM L-glutamine, 100 units/mL penicillin, 100 ug/mL streptomycin and 400 μg/mL G418. Cells were maintained in 5% CO2 at 37° C. At 24 hrs prior to assay, cells were seeded in clear-base poly-D-lysine coated 384-well plates (BD Biosciences, NJ, USA) at a density of 5,000 cells per well in culture medium and grown overnight in 5% CO2 at 37° C. On assay day, growth media was removed and cells were loaded with Calcium 3 Dye (Molecular Devices) for 35 min at 37° C., under 5% CO2 and then for 25 min at room temperature and atmosphere. Subsequently, cells were tested for agonist-induced increases in intracellular Ca^2+ levels using FLIPR™ or FDSS. Cells were challenged with a compound of Formula (I) (at varying concentrations) and intracellular Ca^2+ was measured for 5 min prior to the addition of icilin to all wells to achieve a final concentration which produces approximately an 80% maximal response.
Basal FI was subtracted prior to normalizing data to percent of maximal response. Curves were generated using the average of quadruplicate wells for each data point, were analyzed using nonlinear regression of either sigmoidal dose response or sigmoidal dose response (variable slope). Finally, the EC50 and IC50 values were calculated with the best-fit dose curve determined by GraphPad Prism.

[1] = HEK293, read-out: % I (1 μM), 1 μM compound
[2] = HEK293, 1 μM compound, read-out: % I (1 μM)

T1 sequence (Q1A7N1 1-1104): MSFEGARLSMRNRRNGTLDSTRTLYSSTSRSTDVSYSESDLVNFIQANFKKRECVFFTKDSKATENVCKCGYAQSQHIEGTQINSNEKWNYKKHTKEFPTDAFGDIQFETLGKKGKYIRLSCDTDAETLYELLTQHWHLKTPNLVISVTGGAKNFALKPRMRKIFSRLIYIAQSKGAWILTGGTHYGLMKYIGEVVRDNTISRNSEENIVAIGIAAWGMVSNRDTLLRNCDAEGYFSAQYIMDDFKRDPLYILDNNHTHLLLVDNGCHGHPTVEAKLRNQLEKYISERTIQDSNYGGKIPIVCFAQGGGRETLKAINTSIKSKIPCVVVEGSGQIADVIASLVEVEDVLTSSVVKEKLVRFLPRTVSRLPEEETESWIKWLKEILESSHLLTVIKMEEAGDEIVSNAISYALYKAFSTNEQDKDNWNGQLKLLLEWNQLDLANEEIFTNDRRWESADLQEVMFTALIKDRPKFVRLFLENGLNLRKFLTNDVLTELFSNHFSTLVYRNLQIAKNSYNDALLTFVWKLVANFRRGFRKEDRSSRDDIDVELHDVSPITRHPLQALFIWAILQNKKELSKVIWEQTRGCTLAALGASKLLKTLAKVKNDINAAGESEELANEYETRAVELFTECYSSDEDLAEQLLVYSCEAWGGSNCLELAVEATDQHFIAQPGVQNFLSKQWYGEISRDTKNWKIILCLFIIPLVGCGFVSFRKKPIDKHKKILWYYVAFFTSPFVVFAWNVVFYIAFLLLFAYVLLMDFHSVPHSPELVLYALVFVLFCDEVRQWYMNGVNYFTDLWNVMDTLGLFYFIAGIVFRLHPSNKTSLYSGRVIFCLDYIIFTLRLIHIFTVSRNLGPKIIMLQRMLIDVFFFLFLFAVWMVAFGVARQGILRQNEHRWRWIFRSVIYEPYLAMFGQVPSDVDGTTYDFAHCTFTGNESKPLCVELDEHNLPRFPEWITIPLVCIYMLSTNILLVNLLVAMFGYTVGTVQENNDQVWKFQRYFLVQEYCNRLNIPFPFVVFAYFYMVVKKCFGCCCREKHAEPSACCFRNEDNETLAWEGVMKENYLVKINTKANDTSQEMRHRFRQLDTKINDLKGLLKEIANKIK

Compound	% I (0.5 μM) [%]	IC50 (read-out: IC50)	% I (1 μM) [%]	also measured
CCOP(=O)(Cc1cc2ccccc2s1)OCc1ccccc1C (stereo not shown) [Cpd 104, Benzo[b]thiophen-2-ylmethyl-phosphonic acid ethyl ester 2-methyl-benzyl ester]	–	–	–	% I (5 μM): 99%; inhibition at 1 µM [1]: 53%; IC50 (IC50 (μM)): 0.96 µM
CC(=O)OCCOP(=O)(OCCOC(C)=O)C(Cc1ccc(F)c(F)c1)c1sc2ccccc2c1Br (racemic) [Cpd 213]	100	0.202 µM	–	–
Cc1c(C(Cc2ccc(F)c(F)c2)P(=O)(OC2CCCCC2)OC2CCCCC2)sc2ccccc12 (stereo not shown) [Cpd 101, [2-(3,4-Difluoro-phenyl)-1-(3-methyl-benzo[b]thiophen-2-yl)-ethyl]-phosphonic acid dicyclohexyl ester]	–	0.75 µM	–	inhibition at 1 µM [2]: 55%
CCOP(=O)(OCC)C(Cc1ccc(F)c(F)c1)C1=C(C)c2ccccc2S1(=O)=O (stereo not shown) [Cpd 88, [2-(3,4-Difluoro-phenyl)-1-(3-methyl-1,1-dioxo-1H-1λ^6-benzo-[b]thiophen-2-yl)-ethyl]-phosphonic acid diethyl ester]	–	–	–	inhibition at 1 µM [1]: 80%; IC50 (IC50 (μM)): 0.5 µM and 0.54 µM
CCOP(=O)(OCC)C(Cc1ccccc1C)c1cc2ccccc2s1 (stereo not shown) [Cpd 89]	–	0.52 µM	91	% I (5 μM): 100%
CC(C)OP(=O)(OC(C)C)[C@H](Cc1ccc(F)c(C(F)(F)F)c1)c1sc2ccccc2c1Br [Cpd 243, (R)-[1-(3-Bromo-benzo[b]thiophen-2-yl)-2-(4-fluoro-3-trifluoromethyl-phenyl)-ethyl]-phosphonic acid diisopropyl ester]	–	0.089 µM	–	inhibition at 0.5 µM (HEK293, 0.5 μM compound, read-out: % I (0.5 μM)): 80%
CCOP(=O)(OCC)C(Cc1ccc(F)c(C(F)(F)F)c1)c1sc2ccccc2c1Cl (racemic) [Cpd 294]	103	0.118 µM	–	–
CCOP(=O)(OCC)C(Cc1ccc(F)cc1Cl)c1sc2ccccc2c1C (stereo not shown) [Cpd 27]	–	0.11 µM	99	–
CCOP(=O)(OCC)C(Cc1cc(C(F)(F)F)ccc1C(F)(F)F)c1sc2ccccc2c1C (stereo not shown) [Cpd 113]	–	–	25	–
Cc1c(C(OCc2ccc(F)c(F)c2)P(=O)(CC(C)C)CC(C)C)sc2ccccc12 (stereo not shown) [Cpd 13, 2-[(3,4-Difluoro-benzyloxy)-(diisobutyl-phosphinoyl)-methyl]-3-methyl-benzo[b]thiophene]	–	0.046 µM	–	inhibition at 1 µM [2]: 100%
CC(C)OP(=O)(OC(C)C)C(Cc1ccc(F)c(F)c1)c1sc2ccccc2c1C1CC1 (stereo not shown) [Cpd 20, [1-(3-Cyclopropyl-benzo[b]thiophene-2-yl)-2-(3,4-difluoro-phenyl)-ethyl]-phosphonic acid diisopropyl ester]	–	0.07 µM	–	inhibition at 1 µM [2]: 100%
CCOP(=O)(OCC)C(Cc1ccc(F)c(F)c1)c1sc2cc(OC)ccc2c1C (stereo not shown) [Cpd 82, [2-(3,4-Difluoro-phenyl)-1-[6-methoxy-3-methyl-benzo[b]thiophene-2-yl)-ethyl]-phosphonic acid diethyl ester]	–	–	–	inhibition at 1 µM [1]: 87%; IC50 (IC50 (μM)): 0.44 µM
CCOP(=O)(OCC)C(Cc1ccc(OC(F)(F)F)c(Cl)c1)c1sc2ccccc2c1Br (racemic) [Cpd 149]	103	0.06 µM	–	–
CCOP(=O)(OCC)C(Cc1cccc(C(F)(F)F)c1Cl)c1sc2ccccc2c1Cl (racemic) [Cpd 280]	101	0.227 µM	–	–
CCOP(=O)(OCC)C(Cc1cc(O)cc(O)c1)c1sc2ccccc2c1Br (stereo not shown) [Cpd 322]	45	–	–	–
CCOP(=O)(OCC)C(Cc1ccc(F)c(F)c1)c1oc2cccc(F)c2c1Br (racemic) [Cpd 206]	–	0.098 µM	100	–
CCOP(=O)(OCC)C(Cc1ccc(F)c(F)c1)c1sc2ncccc2c1Br (stereo not shown) [Cpd 132, 1-[(3-Bromo-thieno[2,3-b]pyridin-2-yl)-2-(3,4-difluoro-phenyl)-ethyl]-phosphonic acid diethyl ester]	–	–	–	inhibition at 1 µM [1]: 102%; IC50 (IC50 (μM)): 0.11 µM
COc1ccc(CC(c2sc3ccccc3c2Cl)P(=O)(OC(C)C)OC(C)C)cc1C(F)(F)F (stereo not shown) [Cpd 176]	104	0.131 µM	–	–
CCOP(=O)(OCC)C(Cc1ccc(OC)c(C(F)(F)F)c1)c1sc2ccccc2c1Cl (racemic) [Cpd 292]	99	0.216 µM	–	–
CCOP(=O)(OCC)C(Cc1ccc(F)c(F)c1)c1sc2ccccc2c1-c1ccc(F)cc1 (racemic) [Cpd 220]	101	0.207 µM	–	–
CCOP(=O)(OCC)C(Cc1ccc(Cl)c(C(F)(F)F)c1)c1sc2ccccc2c1Cl (racemic) [Cpd 287]	103	0.124 µM	–	–
CCOP(=O)(OCC)C(Cc1ccccc1C)c1sc2ccccc2c1C (stereo not shown) [Cpd 26]	–	0.108 µM	100	–
CC(C)OP(=O)(OC(C)C)C(Cc1ccc(S(C)(=O)=O)cc1)c1sc2ccccc2c1Br (stereo not shown) [Cpd 252]	44	–	–	–

Compound	% I (0.5 μM) [%]	IC50 (read-out: IC50)	% I (1 μM) [%]	also measured
CCOP(=O)(OCC)C(Cc1ccc(Cl)c(C(F)(F)F)c1)c1sc2ccccc2c1Br (stereo not shown) [Cpd 139]	102	0.06 µM	–	–
CCOP(=O)(OCC)C(Cc1ccc(F)c(F)c1)c1sc2cccc(F)c2c1C (stereo not shown) [Cpd 3, [2-(3,4-Difluoro-phenyl)-1-(4-fluoro-3-methyl-benzo[b]-thiophene-2-yl)-ethyl]-phosphonic acid diethyl ester]	–	–	–	inhibition at 1 µM [1]: 100%; IC50 (IC50 (μM)): 0.012 µM and 0.051 µM
CCOP(=O)(OCC)C(Cc1cccc(Br)c1)c1sc2ccccc2c1Cl (stereo not shown) [Cpd 275]	103	0.104 µM	–	–
CCOP(=O)(OCC)C(Cc1ccc(C(F)(F)F)c(F)c1)c1sc2ccccc2c1Cl (stereo not shown) [Cpd 273]	103	0.116 µM	–	–
CCOP(=O)(OCC)C(Cc1cc(Cl)ccc1F)c1sc2ccccc2c1Cl (racemic) [Cpd 305]	102	0.07 µM	–	–
CC(C)OP(=O)(OC(C)C)C(Cc1ccc(F)c(C(F)(F)F)c1)c1sc2ccccc2c1Cl (stereo not shown) [Cpd 188]	103	0.064 µM	–	–
CCOP(=O)(OCC)C(Cc1ccc(F)c(F)c1)c1cc2ccccc2o1 (stereo not shown) [Cpd 265]	–	0.409 µM	95	–
CCOP(=O)(OCC)C(Cc1ccc(C(F)(F)F)cc1)c1sc2ccccc2c1Cl (racemic) [Cpd 285]	103	0.125 µM	–	–
CC(C)OP(=O)(OC(C)C)C(Cc1ccc(S(=O)(=O)C(F)(F)F)cc1)c1sc2ccccc2c1Br (stereo not shown) [Cpd 263]	103	0.022 µM	–	–
CCOP(=O)(OCC)C(Cc1cc(C(F)(F)F)cc(Cl)c1F)c1sc2ccccc2c1C (stereo not shown) [Cpd 73]	–	0.36 µM	100	–
CC(C)OP(=O)(OC(C)C)C(Cc1cc(C(F)(F)F)cc(Cl)c1F)c1sc2ccccc2c1Br (stereo not shown) [Cpd 195]	–	0.061 µM	103	–
CCOP(=O)(OCC)C(Cc1ccc(OC)c(F)c1)c1sc2ccccc2c1Br (racemic) [Cpd 158]	101	0.059 µM	–	–
CSc1ccc(CC(c2sc3ccccc3c2Br)P(=O)(OC(C)C)OC(C)C)cc1 (stereo not shown) [Cpd 251]	103	0.045 µM	–	–
CCOP(=O)(OCC)C(Cc1c(Cl)cccc1Cl)c1sc2ccccc2c1C (stereo not shown) [Cpd 54]	–	0.23 µM	100	–
CC(C)OP(=O)(OC(C)C)C(Cc1cccc(Cl)c1)c1sc2ccccc2c1Br (racemic) [Cpd 166]	102	0.018 µM and 0.014 µM	103	–
CCOP(=O)(OCC)C(Cc1ccccc1C(F)(F)F)c1cc2ccccc2s1 (stereo not shown) [Cpd 102]	–	0.75 µM	86	–
CCOP(=O)(OCC)C(Cc1ccccc1O)c1sc2ccccc2c1Br (stereo not shown) [Cpd 323]	104	0.009 µM	–	–
CC(C)OP(=O)(OC(C)C)C(Cc1ccc(F)c(F)c1)c1nc2ccccc2s1 (stereo not shown) [Cpd 25, [1-Benzothiazol-2-yl-2-(3,4-difluoro-phenyl)-ethyl]-phosphonic acid diisopropyl ester]	–	0.12 µM and 0.19 µM	–	inhibition at 1 µM [2]: 101%
CCOP(=O)(OCC)C(Cc1ccc(F)c(F)c1)c1sc2cccc(C(F)(F)F)c2c1C (stereo not shown) [Cpd 84]	–	–	–	inhibition at 1 µM [1]: 97%; IC50 (IC50 (μM)): 0.46 µM
CCOP(=O)(OCC)C(Cc1cccc(C(F)(F)F)c1)c1cc2ccccc2s1 (stereo not shown) [Cpd 39]	–	0.141 µM	100	–
CCOP(=O)(OCC)C(Cc1cccc(OC)c1F)c1sc2ccccc2c1Br (racemic) [Cpd 162]	103	0.032 µM	–	–
CC(C)OP(=O)(OC(C)C)C(Cc1ccccc1F)c1sc2cc(Br)ccc2c1Br (stereo not shown) [Cpd 199]	–	–	81	–
[2-(3,4-Difluoro-phenyl)-1-(3-methyl-benzo[b]thiophene-2-yl)-ethyl]-methyl-phosphonic acid ethyl ester [Cpd 106]	–	1.26 µM	32	–
